Test results: patent US6872711B2, “β-substituted β-aminoethyl phosphonate derivatives” (Ilex Oncology Research S.A., priority 2000, dated 2005)

Legend:
[1] = tested on: apo(a) secretion in primary cultures of Cynomolgus hepatocytes; test: Lowering the production of apo(a) in primary cultures of Cynomolgus hepatocytes (ELISA of culture medium); format: cell-based, Cynomolgus monkeys; settings: Macaca fascicularis, Hepatocyte, tested at 20 μM, 6-24 hours incubation, one range stated for all listed compounds, read-out: lowering of apo(a) secretion (change vs control plates)
Protocol: The compounds of formula (I) were assayed for lowering the production of apo(a) in primary cultures of Cynomolgus hepatocytes.
Protocol: Hepatocytes were isolated from livers of male adult Cynomolgus monkeys by the two-step collagenase perfusion method according to C. Guguen-Guillouzo and A. Guillouzo “Methods for preparation of adult and fetal hepatocytes” p.1-12in “Isolated and Cultured Hepatocytes,” les editions Inserm Paris and John Libbey Eurotext London (1986).
The viability of cells was determined by Trypan blue staining. The cells were then seeded at a density of 1.5-2.10^5 viable cells per 2 cm^2 in 24 well tissue culture plates in a volume of 500 μl per well of Williams E tissue culture medium containing 10% fetal calf serum. Cells were incubated for 6-24 hours at 37° C. in a CO2 incubator (5% CO2) in the presence of 20 μM of the test compounds dissolved in ethanol. Four wells were used for each compound. Nicotinic acid and steroid hormones were used as references to validate the assay system since they are known to decrease Lp(a) in man. Control cells were incubated in the presence of ethanol only.
The amount of Lp(a) secreted in culture medium was directly assayed by ELISA using a commercially available kit. Cells were washed and lysed as described by A. L. White et al., Journal of Lipid Research vol. 34, p. 509-517, (1993) and the cellular content of Lp(a) was assayed as described above. Changes in Lp(a) concentration in culture medium are given as the percentage of value measured for the control plates.

`CCOP(=O)(CC(Nc1cccnc1)c1ccc(C)c(O)c1C)OCC` (stereo not drawn) [Compound 31, diethyl β-(2,4-dimethyl-3-hydroxyphenyl)-β-[N-(3-pyridyl)-amino]-ethylphosphonate] showed an inhibition at 20 µM [1] of 10 to 35%.
For `CCOP(=O)(CC(Nc1cccnc1)c1cc(OC)c(CO)c(OC)c1)OCC` (stereo not drawn) [Compound 37, diethyl β-(3,5-dimethoxy-4-hydroxymethylphenyl)-β-[N-(3-pyridyl)-amino]-ethylphosphonate], the inhibition at 20 µM [1] was 10 to 35%.
Work on `CCOP(=O)(CC(Nc1cccnc1)c1cc(C(C)(C)C)c(OC)c(C(C)(C)C)c1)OCC` (stereo not drawn) [Compound 30, diethyl β-(3,5-di-tert-butyl-4-methoxyphenyl)-β-[N-(3-pyridyl)-amino]-ethylphosphonate] yielded an inhibition at 20 µM [1] of 10 to 35%.
`COc1cc(C(CP(=O)(OC(C)C)OC(C)C)Nc2cccnc2)cc(C)c1O` (stereo not drawn) [Compound 10, diisopropyl β-(4-hydroxy-3-methoxy-5-methylphenyl)-β-[N-(3-pyridyl)-amino]-ethylphosphonate] gave an inhibition at 20 µM [1] of 10 to 35% and a melting point of 135 to 137 °C.
`COc1cc(C(CP(=O)(OC(C)C)OC(C)C)Nc2cccnc2)cc(OC)c1O` (stereo not drawn) [Compound 2, diisopropyl β-(3,5-dimethoxy-4-hydroxyphenyl)-β-[N-(3-pyridyl)-amino]-ethylphosphonate] showed an inhibition at 20 µM [1] of 10 to 35% and a melting point of 138 to 140 °C.
In the case of `CCOc1cc(C(CP(=O)(OC(C)C)OC(C)C)Nc2cccnc2)cc(C)c1O` (stereo not drawn) [Compound 21, diisopropyl β-(3-ethoxy-4-hydroxy-5-methylphenyl)-β-[N-(3-pyridyl)-amino]-ethylphosphonate], the inhibition at 20 µM [1] was 10 to 35% and the melting point was 148 to 150 °C.
In the case of `Cc1cc(C(CP(=O)(OC(C)C)OC(C)C)Nc2cccnc2)cc(C)c1O` (stereo not drawn) [Compound 17, diisopropyl β-(3,5-dimethyl-4-hydroxyphenyl)-β-[N-(3-pyridyl)-amino]-ethylphosphonate], the inhibition at 20 µM [1] was 10 to 35% and the melting point was 104 to 105 °C.
With `CCOc1cc(C(CP(=O)(OCC)OCC)Nc2cccnc2)cc(C)c1O` (stereo not drawn) [Compound 20, diethyl β-(3-ethoxy-4-hydroxy-5-methylphenyl)-β-[N-(3-pyridyl)-amino]-ethylphosphonate] the inhibition at 20 µM [1] was 10 to 35% and the melting point was 162 to 164 °C.
`CCOP(=O)(CC(Nc1cccnc1)c1cc(O)c(C)c(OC)c1)OCC` (stereo not drawn) [Compound 34, diethyl β-(3-hydroxy-5-methoxy-4-methylphenyl)-β-[N-(3-pyridyl)-amino]-ethylphosphonate] gave an inhibition at 20 µM [1] of 10 to 35% and a melting point of 146 to 147 °C.
`CCOP(=O)(CC(Nc1cccnc1)c1cc(OC)c(OC)c(OC)c1)OCC` (stereo not drawn) [Compound 18, diethyl β-(3,4,5-trimethoxyphenyl)-β-[N-(3-pyridyl)-amino]-ethylphosphonate] gave an inhibition at 20 µM [1] of 10 to 35% and a melting point of 104 to 106 °C.
`CCOP(=O)(CC(Nc1cccnc1)c1cc(OC)c(O)c(OC)c1)OCC` (stereo not drawn) [Compound 1, diethyl β-(3,5-dimethoxy-4-hydroxyphenyl)-β-[N-(3-pyridyl)-amino]-ethylphosphonate] gave an inhibition at 20 µM [1] of 10 to 35% and a melting point of 164 to 166 °C.
`CCOP(=O)(CC(Nc1cccnc1)c1cc(C)c(O)c(C)c1)OCC` (stereo not drawn) [Compound 16, diethyl β-(3,5-dimethyl-4-hydroxyphenyl)-β-[N-(3-pyridyl)-amino]-ethylphosphonate] showed an inhibition at 20 µM [1] of 10 to 35% and a melting point of 98 to 101 °C.
With `CCOP(=O)(CC(Nc1cccnc1)c1cc(C)c(O)c(OC)c1)OCC` (stereo not drawn) [Compound 9, diethyl β-(4-hydroxy-3-methoxy-5-methylphenyl)-β-[N-(3-pyridyl)-amino]-ethylphosphonate] the inhibition at 20 µM [1] was 10 to 35% and the melting point was 156 to 158 °C.
`COc1cc(C(CP(=O)(OC(C)C)OC(C)C)Nc2cccnc2)cc(OC)c1OC` (stereo not drawn) [Compound 19, diisopropyl β-(3,4,5-trimethoxyphenyl)-β-[N-(3-pyridyl)-amino]-ethylphosphonate] showed an inhibition at 20 µM [1] of 10 to 35% and a melting point of 96 to 98 °C.
